Assay results reported in patent US20100239556A1, “PROMOTING ECM PRODUCTION BY FIBROBLAST CELLS AND/OR PROMOTING MIGRATION OF FIBROBLAST CELLS IN A BIOLOGICAL SYSTEM” (TGR BioScience Pty Ltd., priority 2006, published 2010).

System: HFF cells
Test: Collagen I production in the presence of dexamethasone
Type: cell-based, human
Protocol: Primary human foreskin fibroblast cells (HFF) were seeded into 96 well plates at a density of 1.2×10^4 cells/well and cultured overnight in 10% fetal bovine serum/Dulbecco's minimum essential media (10% FBS/DMEM) at 37° C. and 5% CO2. The cells were then starved overnight in serum free DMEM and triplicate wells treated for six hours with a range of doses of proteins with peroxidase activity; horse radish peroxidase (HRP; 0.2-50 ug/ml), Arthromyces ramosus peroxidase (ARP; 0.2-50 ug/ml), microperoxidase (MP; 8-500 ug/ml), soy bean peroxidase (SBP; 0.2-100 ug/ml) and lactoperoxidase (LP; 10-310 ug/ml) (all obtained from Sigma-Aldrich). At the end of the six hour treatment period, the media was aspirated and replaced with fresh serum free DMEM and the cells cultured for a further 72 hours. After 72 hours the culture media was collected for assessment of secreted, soluble collagen types I, III and VI as well as fibronectin protein and the cells assessed for viability/growth using an alamar blue fluorescent dye assay. This assay measures the reduction of oxidized, blue nonfluorescent Alamar Blue reagent to a pink fluorescent dye in the cell medium, such that the higher the amount of reduction, the greater the cell number and/or activity (O'Brien Eur J Biochem 267 2000). Briefly, cells were bathed in a 10% Alamar Blue/phosphate-buffered saline (PBS) solution for 30-60 minutes and fluorescence measured at wavelengths of 485 nm excitation and 595 nm emission using a Wallac Victor Multilabel HTS counter. Relative fluorescent units (RFU) for each sample were normalized to control wells (DMEM only treated cells) and data expressed as mean±standard error of the mean (sem) for triplicate wells. Experiments were repeated at least three times with the combined data from all experiments shown.
The amount of soluble collagen types I, III, and VI in HFF conditioned media was measured by a direct coat ELISA method using standard curves constructed from purified human collagen I, III or VI (extracted from human placenta; col I, BD Biosciences; col III and VI, Rocklands Immunochemicals) and fibronectin (extracted from human plasma, Chemicon). Samples and standards (20 μl/well) were added to a 384 well spectraplate (Packard BioScience) and left at room temperature (RT) overnight. […] After a final wash (6×PBS-T), enhancement solution was added for at least 10 minutes and fluorescence measured at excitation 340 nm and emission 615 nm using a Wallac Victor Multilabel HTS counter. The respective ECM concentration of each sample was determined from the standard curve (μg/ml) and normalized to control wells (DMEM only treated cells) with the mean±sem for triplicate wells calculated. […]

Substance: Arthromyces ramosus peroxidase [ARP]
- increase in collagen I levels (3.1-25 μg/ml, no dexamethasone): 4.5-7 fold
- collagen accumulation in cells treated with both dexamethasone and ARP (dexamethasone 20 μM): significant levels of collagen accumulation were still evident
